# Test results taken from article PMC10324113, “Gut microbiome modulates tacrolimus pharmacokinetics through the transcriptional regulation of ABCB1” (Microbiome, 2023).
# How the values were obtained:
# ABCB1 [1] = target: T1, ABCB1 (Homo sapiens, UniProt P08183); assay: ABCB1 functionality assay: rhodamine 123 intracellular accumulation in HEK293 recombinant cells; format: cell-based; conditions: 5 μM Rh123, 90 min, PBS condition
# T1 construct: expressed in transfected cells
# [2] = Tacrolimus whole blood pharmacokinetics after oral gavage in mice (HPLC-MS/MS, population PK model); conditions: for AUC: TAC AUC (population PK-derived)
# Experimental: TAC was suspended in a mix of water and propylene glycol (90:10), 3 to 5 days before the first administration and kept at 4 °C. […] TAC was first dissolved in propylene glycol, then the water was added. The suspension was homogenized using an ultrasonic homogenizer 3 times for 15 s (QSonica Q700 sonicator, QSonica LLC., USA). TAC concentration was always checked before the first and after the last gavage to control for the dose. TAC or the vehicle was administered once a day (always at the same period) by oral gavage. A dose of 3 mg of TAC/kg of body weight was administered for 5 days, except in the dose determination study where different escalating doses (from 0.1 to 10 mg/kg of body weight) were tested (4 days of treatment).
# It was administered via drinking water and renewed every other day.
# Zosuquidar (ZSQ) was suspended in aqueous 0.5% methylcellulose (based on Matsuda et al.). A single dose of 30 mg/kg of body weight was administered 15 min before last TAC administration by oral gavage (based on Kono et al.).
# Fresh faeces were collected and quickly frozen on dry ice before storage at − 80 °C until further analysis or use. Whole blood samples were collected from the tail of awake freely moving mice, at various time points (ranging from 1 to 24 h = T0, after last gavage). The blood sampling strategy used to generate the concentration–time curve of TAC blood levels in mice is detailed in the Supporting information. Before necropsy, mice were fasted for minimum 4 h and anesthetized with ketamine-xylazine or isoflurane. Hepatic and intestinal tissues were quickly collected and frozen in liquid nitrogen before storage at − 80 °C until further analysis.
# Blood quantification of TAC was performed on a high-performance liquid chromatography-tandem mass spectrometry (HPLC–MS/MS) method, as already described elsewhere and further optimized for the small amounts of blood available in mouse PK studies. Briefly, the Agilent HPLC 1290 Infinity system is coupled to the 6460 Triple Quadrupole instrument. Fifty microlitres of whole blood was pre-treated and vortexed with 50 μl zinc sulfate 0.1 M, and 125 μl internal standard (ascomycin, 5 μg/L) in methanol. Samples were sonicated for 5 min, before 5 min of centrifugation at 13,500 rpm. Forty microlitres of the supernatant was injected into the system. The precolumn used was the 10 × 4 mm 3 μm Mercury Phenomenex, and the analytical column was the 4.6 × 50 mm 1.8 μm Agilent Zorbax Eclipse XDB C18, maintained at 60 °C. The mobile phase of pump 1 contained a mixture of H2O/methanol (40/60%), and pump 2 2 mM NH4^+ acetate, and aqueous 0.5% formic acid/ methanol (5/95%). […] The method is fully validated in terms of analytical performance (limit of quantification: 0.5 ng/ml; imprecision < 5%) and ion suppression effects. The laboratory participates to the TAC International Proficiency Testing Scheme (ASI, London, UK).
# All data generated in this project (n = 351 PK data) were used to develop a population PK model of TAC in mice at steady-state with an average number of observations per subject of 3.5. Population PK modeling of TAC blood concentrations was performed with MonolixSuite-2020R1 software (Lixoft, France) using the stochastic approximation expectation–maximization (SAEM) algorithm. Between-subject variability (eta) was described using an exponential model and covariance between random effects was investigated. Three error models (i.e. proportional, additive and combined) to describe the residual error were tested. The influence of mouse treatment on PK parameters was also investigated through its association with the eta of PK parameters. Additional information on the building of the population PK model (e.g. the precise description of number of measurements per time points) is provided in the Supporting Information.
# gut microbiota = assay: Faecal microbiota composition by 16S rRNA gene sequencing in TAC-treated mice; format: in vivo
# Experimental: (§1) Genomic DNA was extracted from faeces using a QIAamp DNA Stool Mini Kit (Qiagen, Germany), including a bead-beating step. Absolute quantification of the total bacteria was performed by quantitative polymerase chain reaction (qPCR) using the primers Bacteria Universal P338f ([…]) and P518r ([…]). 16S rRNA gene sequencing and ensuing bioinformatics and biostatistics analyses (including amplicon sequence variants (ASV) identification) were performed as previously described. Full details are provided in the Supporting Information.
# To evaluate the potential impact of TAC oral administration on the gut microbiota composition, we compared the faecal bacterial composition of mice treated with TAC (TAC) or with the vehicle (CTL). Faeces were collected at baseline (day 0) and after 2 and 5 days of treatment.
# To assess the impact of ATB on the bacterial load, genomic DNA was extracted from faeces using the QIAamp DNA Stool Mini Kit (Qiagen, Germany) according to manufacturer’s instructions, with the addition of a bead-beating step. To assess the impact of TAC on gut microbiota composition, genomic DNA was extracted from faeces following the protocol Q described by Costea et al. This protocol uses a QIAamp DNA Stool Mini Kit (Qiagen, Germany), including a bead-beating step. Treatment with RNAse A was performed (10 mg/ml, Thermo Fisher Scientific, USA). DNA concentration was determined using a NanoDrop 2000 (Thermo Fisher Scientific, USA).
# Amplicon sequencing of the microbiome was done at the University of Minnesota Genomics Center. Briefly, the V5-V6 region of the 16S rRNA gene was PCR-enriched using the primer pair V5F_Nextera ([…]) and V6R_Nextera ([…]) in a 25 μl PCR reaction containing 5 μl of template DNA, […], 500 nM of final concentration of primers and 0.025 U/μl of HostStar Taq+ polymerase (Qiagen Germany). PCR-enrichment reactions were conducted as follow, an initial denaturation step at 95°C for 5 min followed by 25 cycles of denaturation (20 s at 98°C), annealing (15 s at 55°C), and elongation (1 min at 72°C), and a final elongation step (5 min at 72°C). Next, the PCR-enriched samples were diluted 1:100 in water for input into library tailing PCR. The PCR reaction was analogous to the one conducted for enrichment except with a KAPA HiFi Hot Start Polymerase concentration of 0.25 U/μl, while the cycling conditions used were as follows: initial denaturation at 95°C for 5 min followed by 10 cycles of denaturation (20 s at 98°C), annealing (15 s at 55°C), and elongation (1 min at 72°C), and a final elongation step (5 min at 72°C). The primers used for tailing are the following: F-indexing primer […][i5][…] and R-indexing primer […][i7][…] GCTCGG, where [i5] and [i7] refer to the index sequence codes used by Illumina. The resulting 10 μl indexing PCR reactions were normalized using a SequalPrep normalization plate according to the manufacturer’s instructions (Life Technologies, USA). 20 μl of each normalized sample was pooled into a trough, and a SpeedVac was used to concentrate the sample pool down to 100 μl. The pool was then cleaned using 1X AMPureXP beads and eluted in 25 μl of nuclease-free water. The final pool was quantitated by QUBIT (Life Technologies, USA) and checked on a Bioanalyzer High-Sensitivity DNA Chip (Agilent Technologies, USA) to ensure correct amplicon size. The final pool was then normalized to 2 nM, denatured with NaOH, diluted to 8 pM in Illumina’s HT1 buffer, spiked with 20% PhiX, and heat denatured at 96°C for 2 minutes immediately prior to loading. A MiSeq 600 cycle v3 kit was used to sequence the pool. Raw sequences can be found in the SRA database (project ID: PRJNA877868).
# Subsequent bioinformatics analyses were performed in-house as previously described. Initial quality filtering of the reads was performed with the Illumina Software, yielding an average of 51 929 pass-filter reads per sample. […]
# total bacteria = assay: Absolute quantification of total faecal bacteria by qPCR; format: in vivo; conditions: CTL and TAC mice, faeces, up to 5 days
# Experimental: as §1
# To assess the impact of ATB on the bacterial load, genomic DNA was extracted from faeces using the QIAamp DNA Stool Mini Kit (Qiagen, Germany) according to manufacturer’s instructions, with the addition of a bead-beating step. […] DNA concentration was determined using a NanoDrop 2000 (Thermo Fisher Scientific, USA).
# PCR was performed with a QuantStudio3 (Applied Biosystems, USA) using SYBR Green (GoTaq® qPCR mix, Promega, USA) for detection. […] Threshold was manually adjusted to reach the linear range of the log-fluorescent curves and CT values were determined using the QuantStudio software v1.4.3 (Applied Biosystems, USA). Absolute quantification was achieved through the inclusion of a standard curve (performed in duplicate) on each plate generated by diluting DNA from pure culture of L. acidophilus NCFM (five-fold serial dilution). […]
# [3] = Stability of the TAC suspension for gavage; format: physicochemical; conditions: suspension in water and propylene glycol (90:10), kept at 4 °C
# [4] = cited from earlier work
# CYP3A = test system: CYP3A; parameters: method as in PMID 11172691; conditions: in vitro; cited from earlier work
# ABCB1 [5] = test system: ABCB1; parameters: method as in PMID 11172691; conditions: cited from earlier work
# [6] = mice, oral gavage, steady-state, mono-compartmental population PK model, mean
# [7] = 5 days TAC oral vs vehicle-treated mice
# T1 sequence (P08183 whole entry): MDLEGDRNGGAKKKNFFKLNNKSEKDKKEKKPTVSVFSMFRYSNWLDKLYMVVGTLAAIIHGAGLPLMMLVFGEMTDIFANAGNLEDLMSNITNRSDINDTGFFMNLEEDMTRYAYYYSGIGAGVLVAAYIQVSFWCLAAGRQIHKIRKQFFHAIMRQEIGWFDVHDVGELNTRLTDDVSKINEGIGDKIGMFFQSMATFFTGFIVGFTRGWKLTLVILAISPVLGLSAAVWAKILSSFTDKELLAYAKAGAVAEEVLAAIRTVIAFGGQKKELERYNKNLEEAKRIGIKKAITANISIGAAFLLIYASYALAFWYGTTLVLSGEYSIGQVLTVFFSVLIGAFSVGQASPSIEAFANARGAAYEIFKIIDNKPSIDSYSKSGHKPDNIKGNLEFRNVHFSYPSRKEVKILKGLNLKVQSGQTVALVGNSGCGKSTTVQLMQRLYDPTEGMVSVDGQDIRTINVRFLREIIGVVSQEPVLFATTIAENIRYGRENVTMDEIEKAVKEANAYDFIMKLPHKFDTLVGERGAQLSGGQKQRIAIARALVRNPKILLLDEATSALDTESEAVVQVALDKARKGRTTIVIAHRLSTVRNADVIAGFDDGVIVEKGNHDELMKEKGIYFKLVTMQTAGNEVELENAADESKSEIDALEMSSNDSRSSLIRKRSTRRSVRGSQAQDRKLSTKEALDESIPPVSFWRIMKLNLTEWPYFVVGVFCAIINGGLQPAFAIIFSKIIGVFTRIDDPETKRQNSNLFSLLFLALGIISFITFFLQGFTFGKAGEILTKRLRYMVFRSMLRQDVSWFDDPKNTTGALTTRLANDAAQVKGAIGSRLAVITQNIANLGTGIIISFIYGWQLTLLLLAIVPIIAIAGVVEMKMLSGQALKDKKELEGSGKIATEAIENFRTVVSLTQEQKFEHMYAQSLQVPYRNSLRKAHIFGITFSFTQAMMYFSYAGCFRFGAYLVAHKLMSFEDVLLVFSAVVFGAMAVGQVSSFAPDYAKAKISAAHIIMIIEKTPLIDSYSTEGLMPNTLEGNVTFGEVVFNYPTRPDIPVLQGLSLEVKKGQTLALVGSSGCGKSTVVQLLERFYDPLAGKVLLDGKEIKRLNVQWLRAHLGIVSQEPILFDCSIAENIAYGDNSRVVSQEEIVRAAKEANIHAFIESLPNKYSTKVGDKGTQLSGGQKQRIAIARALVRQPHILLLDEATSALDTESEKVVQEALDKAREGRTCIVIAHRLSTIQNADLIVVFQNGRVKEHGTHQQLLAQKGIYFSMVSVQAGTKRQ
smiles,measurement,setting,value
"COC(=O)c1ccccc1-c1c2ccc(=N)cc-2oc2cc(N)ccc12 [Rh123, rhodamine 123]",intracellular accumulation in ABCB1 overexpressing cells vs control cells,ABCB1 [1],accumulated significantly less
"C=CC[C@@H]1/C=C(\C)C[C@H](C)C[C@H](OC)[C@H]2O[C@@](O)(C(=O)C(=O)N3CCCC[C@H]3C(=O)O[C@H](/C(C)=C/[C@@H]3CC[C@@H](O)[C@H](OC)C3)[C@H](C)[C@@H](O)CC1=O)[C@H](C)C[C@@H]2OC [TAC, tacrolimus]",increase in TAC whole blood exposure,"[2]; ATB-treated vs control mice, both under ZSQ supplementation",75%
same,reduction in TAC whole blood exposure,[2]; mice with lower intestinal microbial load due to antibiotics vs controls,33%
same,time of absorption peak after the last administration,"[2]; mice, 3 mg/kg oral, steady-state concentration-time curve",2 h
same,Ka (absorption rate constant),[2]; [6],1.20 h⁻¹
same,V (volume of distribution),[2]; [6],1.88 L
same,Cl/F (oral clearance),"[2]; mice, oral gavage, steady-state, mono-compartmental population PK model, mean, n = 351 blood samples in 99 mice",0.32 L/h
same,concentration at 2 h,"[2]; mouse, whole blood, po, 3 mg/kg",39.1 ng/mL
same,AUC,"[2]; mouse, whole blood, po, 3 mg/kg, ATB-treated mice (TAC + ATB), 3 mg/kg oral 5 days, steady-state",131 ng·h/mL
same,AUC,"[2]; mouse, whole blood, po, 3 mg/kg, mice treated with TAC solely, 3 mg/kg oral 5 days, steady-state",195 ng·h/mL
same,AUC,"[2]; mouse, whole blood, po, TAC + ZSQ + ATB mice, ZSQ 30 mg/kg oral 15 min before last TAC administration",618 ng·h/mL
same,AUC,"[2]; mouse, whole blood, po, TAC + ZSQ mice, ZSQ 30 mg/kg oral 15 min before last TAC administration",354 ng·h/mL
same,evenness of the gut microbiota (Simpson's and Heip's evenness indexes),gut microbiota; [7],significant reduction
same,indexes combining richness and evenness (Shannon and Simpson indexes),gut microbiota; [7],significantly reduced
same,richness (Chao1 and Observed ASV indexes),gut microbiota; [7],did not affect
same,relative abundance of Clostridiales incertae sedis XIII,"gut microbiota; family level, 5 days TAC",decrease
same,relative abundance of Lachnospiraceae,"gut microbiota; family level, 5 days TAC",decrease
same,relative abundance of Rikenellaceae,"gut microbiota; family level, 5 days TAC",increase
same,relative abundance of Ruminococcaceae,"gut microbiota; family level, 5 days TAC",decrease
same,relative abundance of Verrucomicrobiaceae,"gut microbiota; family level, 5 days TAC",increase
same,relative abundance of Akkermansia,"gut microbiota; genus level, 5 days TAC",increased
same,relative abundance of Alistipes,"gut microbiota; genus level, 5 days TAC",increased
same,relative abundance of Oscillibacter,"gut microbiota; genus level, 5 days TAC",decreased
same,relative abundance of Ruminococcus 2,"gut microbiota; genus level, 5 days TAC",decreased
same,variability in the microbiota dataset accounted for by TAC administration,"gut microbiota; genus level, after 5 days of treatment, PERMANOVA p < 0.05",15%
same,change in total bacterial load over time,total bacteria,did not observe any significant change
same,stability of the solution validated for,[3],15 days
same,parent drug recovered unchanged in the faeces or urine,[4],less than 0.5%
same,time of absorption peak after drug intake,[4]; human population,around 2 h
same,time to steady-state (5 times the half-life),[4]; human,~ 60 h
"O[C@@H](COc1cccc2ncccc12)CN1CCN([C@@H]2c3ccccc3[C@@H]3[C@H](c4ccccc42)C3(F)F)CC1 [ZSQ, Zosuquidar]",change in TAC AUC in comparison to TAC solely group,"[2]; mouse, in vivo",significant increase
same,Ki,CYP3A,~3800 nM
same,affinity for CYP3A lower than for ABCB1,ABCB1 [5]; CYP3A vs ABCB1,more than 60 times
same,Ki,ABCB1 [5],~59 nM
C=CCC1C=C(C)CC(C)CC(OC)C2OC(O)(C(C)CC2OC)C(O)C(=O)N2CCCCC2C(=O)OC(C(C)=CC2CCC(O)C(OC)C2)C(C)C(O)CC1=O (centres unmarked) [bacteria-derived TAC metabolite],bacteria-derived TAC metabolite as share of the parent drug,"[4]; human, in vivo",≤ 5 % of the parent drug
